Experimental data from publication PMC6892255, “Identification of a potent small-molecule inhibitor of bacterial DNA repair that potentiates quinolone antibiotic activity in methicillin-resistant Staphylococcus aureus^” (Bioorganic & Medicinal Chemistry, 2019).

Columns and labels:
S. aureus SH1000 = assay: MIC / growth inhibition assay (end-point OD600), single agent; type: cell-based; settings: Staphylococcus aureus, SH1000, 18 h, end-point OD600 after 18 h, read-out: EC50 S. aureus (SH1000) Compound only
Text: (§1) Minimum inhibitory concentration (MIC) assays were used to evaluate the antimicrobial activity of compounds against Gram-negative (E. coli) and Gram-positive (S. aureus) bacteria. […] Gram-positive bacteria are more susceptible to small-molecule penetration, and compounds were therefore assessed for growth inhibition against the S. aureus SH1000 strain.
(§2) 2.1. Biological and biochemical methods
(§3) Bacterial strains and culture conditions
(§4) Strains utilized in the present study are detailed in Table S1. All strains used were cultivated on Mueller Hinton Agar (MHA) and grown to stationary-phase in Mueller Hinton Broth (MHB) at 37 °C for 16 h, with shaking at 180 r.p.m.
(§5) Minimum inhibitory concentration (MIC) assays
(§6) MIC assays were performed in 96 well plates and MICs were determined in accordance with the broth microdilution protocol.4 Strains grown to stationary-phase in MHB were adjusted to 5 x 10^5 colony-forming units (CFU)/mL in fresh MHB (100 µL/well) supplemented with DMSO to ensure a constant concentration of 0.5% (v/v) DMSO across all experiments. Where […]
(§7) or H2O2 (200 μM). Test compounds were prepared as two-fold serial dilutions. Cells were […]
(§8) as the lowest concentration with no visible bacterial growth, and the optical density at 600 nm (OD600) was recorded. OD600 measurements were background corrected against no-inocula control and normalized to DMSO control for dose-response analysis. The EC50 value mean and SEM were calculated from individual EC50 values from three biological replicates. […]

MRSA (USA300 JE2) [1] = assay: Growth inhibition in the presence of mitomycin-C; type: cell-based, Staphylococcus aureus; settings: read-out: EC50 Compound + MMC (0.40 µM); MRSA USA300 JE2, mitomycin-C 0.40 µM
Description: (§9) The analogue panel was further tested for potentiation of alternative DNA-damaging agents Mitomycin-C (MMC) and hydrogen peroxide (Table S2), which function via alkylation and oxidization DNA bases, respectively.
as §2, §3, §4, §5, §6, §7, §8

[2] = system: methicillin-resistant S. aureus (MRSA, USA300 JE2); assay: MIC / growth inhibition assay (end-point OD600), single agent; type: cell-based, Staphylococcus aureus; settings: for fold less potent against JE2 compared to SH1000: ratio of single-agent EC50 values
Text: as §1
Methicillin-resistant S. aureus (MRSA) is a multi-drug resistant bacterium responsible for a large number of nosocomial infections.[34] The emergence of community associated (CA)-MRSA capable of infection of healthy individuals highlights its significance and clinical relevance.[35]
as §2, §3, §4, §5, §6, §7, §8

E. coli K-12 BW25113 = assay: as above; type: cell-based, Escherichia coli; settings: for EC50: Escherichia coli, BW25113, end-point OD600 after 18 h, read-out: EC50 E. coli (K12 BW25113) Compound only
Text: as §1, §2, §3, §4, §5, §6, §7, §8

[3] = system: methicillin-resistant S. aureus (MRSA, USA300 JE2); assay: Ciprofloxacin (CFX) potentiation in MRSA growth inhibition assay; type: cell-based, Staphylococcus aureus; settings: for EC50: read-out: EC50 S. aureus (USA300 JE2) Compound + CFX (9.4 μM), in presence of half-MIC CFX (9.4 μM)
Description: as §2, §3, §4, §5, §6, §7, §8

MRSA (USA300 JE2) [4] = assay: Growth inhibition in the presence of H2O2; type: cell-based, Staphylococcus aureus; settings: read-out: EC50 Compound + H2O2 (200 µM); MRSA USA300 JE2, H2O2 200 µM
Description: as §9, §2, §3, §4, §5, §6, §7, §8

JE2 = assay: Synergy experiments with CFX (growth rate method, Chou-Talalay, CompuSyn); type: cell-based, Staphylococcus aureus
Description: A more precise method to determine EC50 values for individual compounds and combinations was used to increase accuracy for CI calculations. […]
Synergy experiments were performed as described for MIC assays. Two-fold serial dilutions […]
carried out at 37 °C, with shaking at 220 r.p.m. OD600 was recorded every 30 min over a 17 h period. Measurements were background corrected against the no-inocula control before a growth curve of OD600 against time was constructed. The gradient of the exponential phase was obtained by linear regression. Gradients were normalized against the smallest and largest value within the respective data set prior to analysis with the CompuSyn software (http://www.combosyn.com/) to calculate combination index (CI) and dose-reduction index (DRI) values for each drug combination. […]

E. coli topoisomerase IV = target: T1, E. coli topoisomerase IV (Escherichia coli, UniProt P0AFI2+P20083); assay: Topoisomerase IV supercoiling relaxation assay (pQE80L); type: biochemical; settings: at 12.5 µM (compounds)
T1 construct: purchased Inspiralis
T1 sequence (P0AFI2 whole entry): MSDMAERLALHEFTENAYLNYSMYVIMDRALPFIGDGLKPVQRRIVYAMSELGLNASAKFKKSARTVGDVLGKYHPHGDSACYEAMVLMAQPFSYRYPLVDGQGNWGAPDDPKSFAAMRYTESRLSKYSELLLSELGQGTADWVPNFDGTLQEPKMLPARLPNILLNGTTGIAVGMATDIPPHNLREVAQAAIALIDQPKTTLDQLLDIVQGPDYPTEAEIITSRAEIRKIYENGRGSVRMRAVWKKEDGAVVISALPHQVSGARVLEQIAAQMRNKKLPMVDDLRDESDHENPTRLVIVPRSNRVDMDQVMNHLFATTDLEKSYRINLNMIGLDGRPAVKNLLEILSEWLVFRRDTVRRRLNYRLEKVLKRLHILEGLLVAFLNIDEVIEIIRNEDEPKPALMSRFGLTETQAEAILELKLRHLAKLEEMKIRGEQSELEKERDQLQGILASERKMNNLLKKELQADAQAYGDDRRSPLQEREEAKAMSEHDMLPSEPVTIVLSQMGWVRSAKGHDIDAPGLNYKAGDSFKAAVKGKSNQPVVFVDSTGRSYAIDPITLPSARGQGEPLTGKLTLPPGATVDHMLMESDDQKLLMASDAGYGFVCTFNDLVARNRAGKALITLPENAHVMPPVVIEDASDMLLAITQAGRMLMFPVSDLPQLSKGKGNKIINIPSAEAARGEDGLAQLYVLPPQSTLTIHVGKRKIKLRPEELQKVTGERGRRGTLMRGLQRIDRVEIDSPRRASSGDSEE
T1 sequence (P20083 whole entry): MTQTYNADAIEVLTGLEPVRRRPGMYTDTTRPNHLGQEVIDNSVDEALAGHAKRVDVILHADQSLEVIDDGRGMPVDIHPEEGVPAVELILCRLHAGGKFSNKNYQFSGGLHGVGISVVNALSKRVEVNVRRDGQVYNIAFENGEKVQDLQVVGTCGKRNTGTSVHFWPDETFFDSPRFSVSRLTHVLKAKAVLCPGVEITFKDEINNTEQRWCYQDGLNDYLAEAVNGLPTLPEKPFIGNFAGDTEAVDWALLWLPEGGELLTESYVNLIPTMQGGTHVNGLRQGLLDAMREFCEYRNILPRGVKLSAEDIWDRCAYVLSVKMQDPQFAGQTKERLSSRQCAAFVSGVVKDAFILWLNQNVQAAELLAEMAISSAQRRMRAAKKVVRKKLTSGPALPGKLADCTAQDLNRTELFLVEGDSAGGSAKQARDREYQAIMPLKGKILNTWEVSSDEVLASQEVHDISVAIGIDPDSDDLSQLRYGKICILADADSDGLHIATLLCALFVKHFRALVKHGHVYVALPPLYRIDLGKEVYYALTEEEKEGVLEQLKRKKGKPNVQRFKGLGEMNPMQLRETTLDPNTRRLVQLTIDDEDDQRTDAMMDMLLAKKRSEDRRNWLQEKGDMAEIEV
Description: 2.1. Biological and biochemical methods […]
E. coli DNA gyrase supercoiling assay (Inspiralis) was performed according to the manufacturer’s instructions, ensuring a constant concentration of 1% (v/v) DMSO. Samples were separated on a 1% (w/v) agarose gel prepared with Tris/Borate/EDTA (TBE) buffer (1 M Tris-borate, 20 mM EDTA, pH 8.0). Electrophoresis was performed at 100 V until the bromophenol blue dye had run >6 cm to ensure resolution of relaxed and supercoiled DNA.
The gel was stained with SYBR Safe DNA gel stain (Invitrogen, 1:10,000 dilution in TBE) for 30 min, and visualized on a Syngene Gel Doc system. Band intensity was quantified using ImageJ software and the fraction of supercoiled plasmid was determined as the ratio of the density of the supercoiled band to the total density. Values were background corrected against the no-gyrase control and normalized to DMSO control for dose-response analysis.
E. coli topoisomerase IV supercoiling relaxation assay (Inspiralis) was performed according to the manufacturer’s instructions, ensuring a constant concentration of 1% (v/v) DMSO.
Supercoiled pQE80L was prepared via plasmid purification and used as the substrate for the reaction. Reactions were analyzed as described for DNA gyrase assays. […]

[5] = Staphylococcus aureus, 18 h, read-out: EC50 S. aureus (USA300 JE2) Compound only, single agent, end-point OD600 after 18 h

Structure (SMILES) | EC50 (S. aureus SH1000) [µM] | EC50 (MRSA (USA300 JE2) [1]) [µM] | EC50 [2, 5] [µM] | EC50 (E. coli K-12 BW25113) [nM] | EC50 [3] [nM] | EC50 (MRSA (USA300 JE2) [4]) [µM] | other results
O=C(O)c1cn(C2CC2)c2cc(N3CCN(C(=S)Nc4cccc(C(F)(F)F)c4)CC3)c(F)cc2c1=O [Compound 7] | 0.19 ± 0.06 | 2.8 ± 0.4 | 3.7 ± 0.5 | 410 | 140 | 5.5 ± 0.6 | fold less potent against JE2 compared to SH1000 [2]: > 20 fold
CC(C)(C)OC(=O)NCCNC(=O)c1cn(C2CC2)c2cc(N3CCN(C(=S)Nc4ccc(C(F)(F)F)cc4)CC3)c(F)cc2c1=O [Compound 19] | > 100 |  | > 100 | > 100000 |  |  | 
CCn1cc(C(=O)O)c(=O)c2cnc(N3CCN(C(=S)Nc4cc(C(F)(F)F)cc(C(F)(F)F)c4)CC3)nc21 [Compound 3] | 3.6 ± 0.4 | 1.5 ± 0.1 | 2.7 ± 0.6 | > 100000 | 620 ± 90 | 2.4 ± 0.2 | 
CO[C@@]12[C@H](COC(N)=O)C3=C(C(=O)C(C)=C(N)C3=O)N1C[C@@H]1N[C@@H]12 [MMC, Mitomycin-C, reference compound] |  |  | 0.33 ± 0.01 |  |  |  | 
O=C(O)c1cn(C2CC2)c2cc(N3CCN(C(=S)Nc4ccc([N+](=O)[O-])cc4)CC3)c(F)cc2c1=O [Compound 14] | 0.05 ± 0.008 |  | > 12.5 | 260 ± 40 | 49 ± 6 |  | fold increase in potency of para- over meta-substituted analogue, potentiation by CFX ([3]; JE2 + CFX, 4 vs 1, 10 vs 7, 14 vs 13): ~10 fold
O=C(O)c1cn(C2CC2)c2cc(N3CCN(C(=S)Nc4cccc(F)c4)CC3)c(F)cc2c1=O [Compound 8] | 0.08 ± 0.01 | 3.4 ± 0.9 | 4.8 ± 0.9 | 240 ± 30 | 220 ± 50 | 4.6 ± 0.4 | fold less potent against JE2 compared to SH1000 [2]: > 20 fold; fold higher potency than other CFX derivatives in E. coli (E. coli K-12 BW25113): approximately 2 fold
OO [Compound H2O2, hydrogen peroxide, reference compound] |  |  |  |  |  |  | EC50 ([2]; single agent, end-point OD600 after 18 h, read-out: EC50 S. aureus (USA300 JE2) Compound only): 147 ± 11 µM
O=C(O)c1cn(C2CC2)c2cc(NCCNC(=S)Nc3ccc(C(F)(F)F)cc3)c(F)cc2c1=O [Compound 18] | 7.7 ± 1.2 |  | 9.7 ± 1 | > 100000 | 2500 ± 300 |  | 
CCn1cc(C(=O)O)c(=O)c2cnc(N3CCN(C(=S)Nc4cccc(Cl)c4)CC3)nc21 [Compound 5] | ~6 | 4.5 ± 1.2 | ~6 | > 100000 | 310 ± 20 | 8.4 ± 0.2 | Combination index (CI) with CFX (JE2; JE2, constant-ratio combination with CFX, CompuSyn): 0.96; EC50 (JE2; Staphylococcus aureus, JE2, rate of exponential growth phase over 17 h at 37 °C): 6.2 ± 0.1 µM; EC50 ([2]; read-out: EC50 S. aureus (USA300 JE2) Compound only, single agent, end-point OD600 after 18 h): 6.9 ± 0.1 µM; fold increase in potency against JE2 in the presence of CFX compared to single agent ([3]; CFX 9.4 µM): ~20 fold; Inhibition of topoisomerase IV (E. coli topoisomerase IV): not
CCn1cc(C(=O)O)c(=O)c2cnc(N3CCN(C(=O)Nc4ccccc4)CC3)nc21 [Compound 15] | > 12.5 |  |  | > 12500 | > 12500 |  | EC50 ([2]; Staphylococcus aureus, single agent, end-point OD600 after 18 h, read-out: EC50 S. aureus (USA300 JE2) Compound only): > 12.5 µM; Effect of the presence of CFX on potency ([3]; JE2, CFX 9.4 µM): unaffected; Inhibition of topoisomerase IV (E. coli topoisomerase IV): not inhibited and not
